Data: patent US9980982B2, “HE4 based therapy for malignant disease” (Women & Infants Hospital of Rhode Island, priority 2011, dated 2018)
“Also recorded” adds a separate entry of the source.

Legend:
PI-3K = test: In vitro immunoprecipitation lipid kinase (PIP-3) assay; type: cell-based, Human; settings: HE4 overexpressing clones, Cisplatin treatment
Experimental: FIG. 18 is a series of photographs and a schematic illustrating that HE4 regulates EGFR/PI-3K signaling in ovarian cancer cells. […] (C) Mechanistic model of HE4 overexpression induced chemoresistance against Cisplatin via activation of EGFR and PI-3K and its signaling product PIP-3.
HE4 over-expression causes deactivation of pro-survival mitochondrial proteins in SKOV-3 cells. Ovarian cancer cells (SKOV-3) (1 million) were seeded in petri dishes and allowed to adhere overnight in DMEM media supplemented with 10% Fetal Bovine serum without antibiotic. In a separate tube, HE4 cDNA was complexed with lipofectamine (Invitrogen) for 1 min-2 hrs in Optimem media (Invitrogen). HE4 cDNA Lipofectamine complex dissolved in Optimem media were added to the cells. Lipofectamine and no drug were used as control. At different time points (4 hrs, 9 hrs and 24 hr), cells were collected and lysed using lysis buffer. […] Effect of HE4 activation on PIP2-PIP3 conversion was assessed by lipid kinase assay (Yano N. et al. Biochem. J. (2009) 423 (129-143).
A panel of stable HE4 overexpressing ovarian cancer SKOV-3 cell lines were developed by incorporation of pCMV6-HE4 vector. […] The cell viability was measured by MTS assay. Basal reactive oxygen species (ROS) production were measured by FACS analysis. In vitro Phosphoinositide-3-kinase (PI-3K) activity was measured by an immuno-precipitation PIP-3 assay. […]

DNA = test: ICP-MS analysis of Cisplatin binding to DNA in cells; type: cell-based, Human; settings: HE4+ clones versus parental SKOV-3 cells
Experimental: A panel of stable HE4 overexpressing ovarian cancer SKOV-3 cell lines were developed by incorporation of pCMV6-HE4 vector. Inducible HE4 overexpression was achieved by pTet-Off vector (VP 16 vector). The cell viability was measured by MTS assay. Basal reactive oxygen species (ROS) production were measured by FACS analysis. In vitro Phosphoinositide-3-kinase (PI-3K) activity was measured by an immuno-precipitation PIP-3 assay. An Inductively Coupled Plasma-Mass spectrometry (IPC-MS) analysis was carried out to estimate Cisplatin binding to DNA in cells. Mitochondria, rough ER and myelin figures were examined by Electron microscopy (EM). The screening of in-house library of compounds was carried out by MTS assay.

HE4 [1] = test: HE4 secretion levels in xenografted animals by EIA ELISA; type: in vivo, nude mice; settings: cisplatin 5 mg/kg bwt
Experimental: Because HE4 is a secretory protein, the secretion levels of HE4 were measured in animals by an EIA ELISA (Fujirebio Inc).

HE4 [2] = test: HE4 levels in SKOV-3 cell lysates and media by sandwich ELISA; type: cell-based, Human; settings: cytotoxic agents, 24 hrs, serum free DMEM; versus untreated controls
Experimental: Various agents were examined by RT-PCR or by a sandwich ELISA. […] HE4 levels in cell lysates and media were evaluated by a sandwich ELISA.
Cells were grown for 24 h in 100 mm cell culture dishes (Corning, New York, N.Y.), supernatant collected and lysates of washed and scraped cells prepared as described previously (Lange T S et al., 2007Chem Biol Drug Design, 70:302-10). Total protein of lysates was quantitated (BioRad protein estimation kit, Hercules, Calif.), and HE4 levels were determined using the HE4 EIA assay (Fujirebio Diagnostics, Malvern, Pa.), a solid-phase, non-competitive immunoassay using two mouse monoclonal antibodies, directed against two epitopes in the C-WFDC domain. Calibration curves were used to measure HE4 concentrations in both cell lysates and culture media allowing for the calculation of production and secretion of HE4 in pmol/g total cellular protein.
FIG. 15 is a bar chart showing that treatment with growth factors and cytokines affect the HE4 levels in ovarian cancer cells. SKOV-3 cells (1 million each) were seeded in 100 mm dishes and incubated overnight. The cells were treated with an array of factors (IL-6, Insulin, TNFa, EGF) and incubated for another 6 hours. The media was collected and cells were lysed using the cell lysis buffer. The HE4 content in the media or in the cell-lysate was examined by a HE4 sandwich ELISA kit.

[3] = system: HE4 overexpressing SKOV-3 clones HE4C1, -C3, -C7; test: MTS cell viability assay, HE4 overexpressing SKOV-3 clones; type: cell-based, Human; settings: for response of HE4 overexpressing SKOV-3 clones to drug treatment (viability, words): 24 h, clones HE4C1, -C3, -C7, compared to parental SKOV-3
Experimental: An HE4 overexpressing vector for stable expression was engineered by inserting a coding sequence of human WAP four-disulfide core domain 2 (WFDC2) cDNA into a multiple cloning site of an eukaryotic expression vector, pCMV6-entry (Origene, Rockville, Md.). Transfection of the constructs in SKOV-3 cells was performed using Lipofectamine 2000 (Invitrogen, Carlsbad, Calif.) according to the manufacturer's instructions. Stably transfected cells were selected by resistance to G-418 (500 μg/ml) (Research Products International, Mount Prospect, Ill.), applied 48 h after transfection and continued during cell culture. G-418 resistant cells were resuspended (density 5 cells/ml) in complete medium/G-418 and seeded as 200 μl/well on a 96 well cell culture plate (Corning, New York, N.Y.). Cells growing from single colonies (cloned; stable transfection) were isolated.
(§1) Cell growth and viability of cell lines (complete medium, 24 h incubation) was determined by the CellTiter 96® AQueous One Solution Assay (Promega Corp, Madison, Wis.) following the manufacturer's recommendations with modifications (Lange T S et al., 2008 PLOS One, 3(5):e2303). Experiments are expressed as the mean of triplicate determinations (X±SD) of a representative experiment in OD (cell growth) or % of absorbance by drug-treated versus untreated cells [=100%] (cell viability). Cisplatin (CDDP), paclitaxel, doxorubicin and camptothecin (CPT) were purchased from (Sigma Aldrich, St. Louis, Mo.).
(§2) To analyze the potential biological relevance of elevated HE4 production for ovarian cancer cells the efficacy of commonly used anticancer drugs was examined in a viability assay (FIG. 5). SKOV-3 clones or parental cells were treated with cisplatin, paclitaxel, doxorubicin, or camptothecin for 24 h in various concentrations as indicated and the cytotoxicity evaluated.

SKOV-3 cells = test: MTS cell viability assay, parental/wild-type SKOV-3 cells; type: cell-based, Human; settings: 24 h; paclitaxel 6.25, 12.5 or 25 nM; cisplatin 40 or 80 μM
Experimental: as §1, §2

[4] = system: HE4 overexpressing clone-1 xenograft; test: Cisplatin response and Kaplan-Meier analysis of animals xenografted with HE4 overexpressing clones; type: in vivo, nude mice; settings: cisplatin treated, within 14 days
Experimental: To ascertain the role of HE4 in the progression of ovarian cancer, the xenografts of stable HE4 overexpressing (pCMV6-HE4) clones, SKOV-3 (wild type) and the null vector clones (pCMV6) cells were raised in nude mice (strain 088, Nu/Nu). The tumor size was measured weekly.
The survival rate, tumor size, and the cisplatin or vehicle treatment response of animals xenografted with HE4 overexpressing clone-1, parental SKOV-3, and null vector clones was determined. […] Therefore, HE4 overexpression imparted chemoresistance against cisplatin treatment in animals.

## N.N.[Cl][Pt][Cl] [cisplatin]
PI-3K
  effect on PIP-3 synthesis: further enhancement of PIP-3 synthesis
DNA
  Cisplatin binding to DNA: reduced Cisplatin binding to DNA
HE4 [1]
  HE4 levels in cisplatin treated groups versus vehicle treated animals: did not differ significantly; also recorded: not significantly different
HE4 [2]
  effect on HE4 levels in SKOV-3: suppressed HE4 levels
[3]
  response of HE4 overexpressing SKOV-3 clones to drug treatment (viability, words): two clones did not respond; also recorded: significantly reduced response
[3]; listed as Cisplatin
  response of HE4 overexpressing SKOV-3 clones to drug treatment (viability, words): significantly reduced response
[3]; HE4C1, only at 80 μM
  sensitivity of clone HE4C1 to cisplatin: minor sensitivity
[3]; HE4C1 compared to parental and null vector cells
  fold chemoresistance against cisplatin: 2-4 fold
[3]; cell viability assay
  fold lower response / loss of efficacy / resistance of HE4 overexpressing SKOV-3 clones compared to parental SKOV-3: 20 fold
SKOV-3 cells
  effect on viability of wild-type SKOV-3 cells: reduced the viability of wild-type SKOV-3 cells drastically
[4]
  animals that reached terminal tumor size (≥14 mm): ~60%
